Laboratory results taken from US20170252392A1, “COMPOSITION FOR IMPROVEMENT, TREATMENT OR PREVENTION OF CONSTIPATION COMPRISING CASSIA SEED LACTIC ACID BACTERIA FERMENTED PRODUCT AS EFFECTIVE INGREDIENT, AND METHOD FOR PREPARING SAME” (HAENAM NATURAL FARMING ASSOCIATION COOPERATION, priority 2014, published 2017).

Experiments:
[1] = tested on: Sprague-Dawley (SD) rats with loperamide-induced constipation; assay: Prevention of loperamide-induced constipation: number and weight of feces (Experimental Example 2); type: in vivo, rat
Experimental: Four-week-old male Sprague-Dawley (SD) rats were purchased from Damul Science (Daejeon, Korea) and bred at a temperature of 20±2° C. and a humidity of 55±5% on a 12 h light-dark cycle. The experimental animals were acclimated for 1 week after purchase and were divided into the experimental groups (5 animals per group) shown in Table 3.
All experimental groups other than the normal control (NOR) and the negative control (LOP) were administered orally the respective drugs (positive controls) or the respective fermented products of Preparative Example 4 for 5 days before loperamide administration.
The negative control (LOP), the positive controls (CON1, CON2), and all experimental groups other than the normal control (NOR) were administered subcutaneously loperamide for 5 days to induce constipation. The experimental animals were sacrificed on day 6 after initiation of the loperamide administration.

[2] = tested on: Sprague-Dawley (SD) rats with loperamide-induced constipation; assay: Colonic transits of carmine dye (Experimental Example 3); type: in vivo, rat; conditions: 20 min after oral carmine dye
Experimental: At day 6, 3 mL of carmine dye at a concentration of 1.5% (w/v) in physiological saline was administered orally to the experimental animals. 20 min after the oral administration, the experimental animals were sacrificed. Thereafter, in each experimental animal, both ends of the site of the colon from the appendix to the rectum were ligated. The colon site was excised and washed with PBS. The colonic transits of the carmine dye were measured from FIG. 6.

| Compound | Weight of feces ([1]; negative control (LOP): loperamide 4 mg/kg subcutaneously for 5 days, normal control 4.8±0.89) | Number of feces ([1]; negative control (LOP): loperamide 4 mg/kg subcutaneously for 5 days, normal control 47.2±5.8) | Colonic transit of the carmine dye ([2]; negative control (LOP): loperamide 4 mg/kg s.c. 5 days, normal control 13.4±0.94 cm) | Number of feces ([1]; sennoside 50 mg/kg oral before loperamide 4 mg/kg s.c. 5 days (CON1)) | Weight of feces ([1]; sennoside 50 mg/kg oral before loperamide (CON1), compared with CON2) | Colonic transit of the carmine dye ([2]; sennoside 50 mg/kg oral before loperamide (CON1)) |
| --- | --- | --- | --- | --- | --- | --- |
| CN(C)C(=O)C(CCN1CCC(O)(c2ccc(Cl)cc2)CC1)(c1ccccc1)c1ccccc1 [loperamide] | 2.6±0.32 | 23.1±3.6 | 6.6±0.75 cm | – | – | – |
| sennoside | – | – | – | more effective in increasing the number of feces than Dulcolax-S | no significant difference in the weight of feces | significantly increased compared to that in the negative control (LOP) |
